The target of this assay is T1, EngD (Endoglucanase D) (Clostridium cellulovorans, UniProt P28623).
T1 sequence (P28623 32-515): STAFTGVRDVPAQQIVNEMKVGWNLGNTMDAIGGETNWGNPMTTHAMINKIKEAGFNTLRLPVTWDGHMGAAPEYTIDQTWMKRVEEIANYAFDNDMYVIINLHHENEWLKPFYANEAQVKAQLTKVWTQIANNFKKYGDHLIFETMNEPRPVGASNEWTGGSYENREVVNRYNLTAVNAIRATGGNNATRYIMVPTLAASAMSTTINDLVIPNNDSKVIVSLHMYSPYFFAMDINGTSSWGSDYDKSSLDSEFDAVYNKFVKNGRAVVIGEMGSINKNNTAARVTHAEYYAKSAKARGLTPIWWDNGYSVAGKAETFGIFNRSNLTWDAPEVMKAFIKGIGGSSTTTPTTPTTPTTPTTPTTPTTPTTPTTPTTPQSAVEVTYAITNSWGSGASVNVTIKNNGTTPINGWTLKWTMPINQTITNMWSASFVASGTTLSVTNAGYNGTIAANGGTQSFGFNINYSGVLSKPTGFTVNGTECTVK
The assay can be described thus: HPLC of hydrolysis products. The conditions noted are these: 2 mM substrate, 100 mM sodium citrate pH 5.0, 37 °C, 30 min. The assay is classed as biochemical.

The structures appear in SMILES notation.

For `OC[C@H]1O[C@@H](O[C@H]2[C@H](O)[C@@H](O)[C@H](O[C@H]3[C@H](O)[C@@H](O)[C@H](O[C@H]4[C@H](O)[C@@H](O)[C@H](O[C@H]5[C@H](O)[C@@H](O)[C@H](O[C@H]6[C@H](O)[C@@H](O)C(O)O[C@@H]6CO)O[C@@H]5CO)O[C@@H]4CO)O[C@@H]3CO)O[C@@H]2CO)[C@H](O)[C@@H](O)[C@@H]1O` (stereo partly shown) [G6, cellohexaose], the “HPLC of hydrolysis products” value was “Wild type EngD produced an equal amount cellotriose and cellobiose in the degradation of cellohexaose”.
